SMILES strings stand for the structures. Like-named read-outs stand apart in the source and are kept apart here.

Usually EC50 stands for the concentration that produces a half-maximal response.

The test addresses Cqui\Orco+Cqui\Or21 (Culex quinquefasciatus, UniProt Q309I4). In words: Agonist activation (concentration-response) of the OR expressed in Xenopus oocytes, two-electrode voltage clamp. The test is classed as cell-based. Here is the method:
Oocytes were surgically removed from mature Xenopus laevis frogs. Follicle cells were removed by treatment with Collagenase B (Boehringer Mannhem) for 2 hours at room temperature. Capped cRNA encoding each OR subunit was generated using mMessage mMachine kits (Ambion). For heteromeric ORs, 25 ng of cRNA encoding each OR subunit was injected into Stage V-VI Xenopus oocytes. For expression of Orco alone, 50 ng of cRNA was injected. Oocytes were incubated at 18°C in Barth's saline (in mM: 88 NaCl, 1 KCl, 2.4 NaHCO3, 0.3 CaNO3, 0.41 CaCl2, 0.82 MgSO4, 15 HEPES, pH 7.6, and 150 µg/ml ceftazidime) for 2–5 days prior to electrophysiological recording.
Odorant and Orco ligand induced currents were recorded under two-electrode voltage clamp, using an automated parallel electrophysiology system (OpusExpress 6000A; Molecular Devices). Oocytes were perfused with ND96 (in mM: 96 NaCl, 2 KCl, 1 CaCl2, 1 MgCl2, 5 HEPES, pH 7.5). Orco ligands were prepared as 50 or 100 mM stock solutions in DMSO and then diluted into ND96 on the day of the experiment. Unless otherwise noted, applications were for 60 sec at a flow rate of 1.0 ml/min, with extensive washing in ND96 at 4.6 ml/min between applications. For the concentration-response protocol in Figure 1d , applications were for 20 sec at a flow rate of 1.65 ml/min. Micropipettes were filled with 3 M KCl and had resistances of 0.2–2.0 MΩ. The holding potential was -70 mV. Current responses, filtered (4-pole, Bessel, low pass) at 20 Hz (-3 db) and sampled at 100 Hz, were captured and stored using OpusXpress 1.1 software (Molecular Devices).
Initial analysis of electrophysiological data was done using Clampfit 9.1 software (Molecular Devices). Curve fitting and statistical analyses were done using Prism 5 (Graphpad). Concentration-response data were fit to the equation: I = Imax/(1+(EC50/X)^n) where I represents the current response at a given concentration of odorant, X; Imax is the maximal response; EC50 is the concentration of agonist yielding a half maximal response; n is the apparent Hill coefficient. Concentration-inhibition data were fit to the equation: I = Imax / (1+ (X/IC50)^n) where I represents the current response at a given concentration of inhibitor, X; Imax is the maximal response in the absence of inhibitor; IC50 is the concentration of inhibitor present that still allows a half maximal response from odorant; n is the apparent Hill coefficient. Statistical significance was assessed using a two-tailed unpaired t test, an F test, or a one-way analysis of variance followed by the Dunnett's post-test, as appropriate.
(In two-electrode clamp one electrode senses voltage and the other passes current.)

Chain of Cqui\Orco+Cqui\Or21 (Q309I4 entry or part of it): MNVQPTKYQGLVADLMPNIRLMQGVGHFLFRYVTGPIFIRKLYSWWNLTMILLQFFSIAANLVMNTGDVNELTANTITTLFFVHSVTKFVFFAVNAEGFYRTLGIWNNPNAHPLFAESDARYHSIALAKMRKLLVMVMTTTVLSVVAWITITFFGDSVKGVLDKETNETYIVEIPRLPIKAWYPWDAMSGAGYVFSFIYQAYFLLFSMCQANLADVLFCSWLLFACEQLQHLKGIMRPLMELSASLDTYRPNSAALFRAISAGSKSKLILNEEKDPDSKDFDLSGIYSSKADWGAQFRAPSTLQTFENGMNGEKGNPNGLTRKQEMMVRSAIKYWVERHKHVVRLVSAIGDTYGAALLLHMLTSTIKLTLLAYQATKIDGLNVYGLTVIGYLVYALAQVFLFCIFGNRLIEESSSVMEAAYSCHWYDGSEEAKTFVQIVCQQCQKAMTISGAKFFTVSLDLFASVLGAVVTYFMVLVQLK

Turning to `CCn1c(SCC(=O)Nc2ccc(C(C)C)cc2)nnc1-c1ccncc1` [OLC12, 2-((4-ethyl-5-(4-pyridinyl)-4H-1,2,4-triazol-3-yl)sulfanyl)-N-(4-isopropylphenyl)-acetamide], the “nH for OLC12 activation of Cqui\Orco+Cqui\Or21” value amounted to 1.42 ± 0.32. Besides, the EC50 (read-out: EC50 for OLC12 activation of Cqui\Orco+Cqui\Or21) was found to be 6600 ± 1400 nM.

In the case of `Cc1c[nH]c2ccccc12` [Compound 3MI, 3-methylindole], the EC50 (3MI alone, read-out: EC50 for activation of Cqui\Orco+Cqui\Or21 by 3MI) stood at 32 ± 7 nM and the EC50 (in presence of 50 µM OX1a, read-out: EC50 for 3MI activation of Cqui\Orco+Cqui\Or21) came to 37 ± 7 nM.

Source of the values: article PMC3866151, “Phenylthiophenecarboxamide Antagonists of the Olfactory Receptor Co-Receptor Subunit from a Mosquito” (PLoS ONE, 2013).
